{
  "source": "ChEMBL document CHEMBL1795312",
  "about": "“Insights into the structural requirements of farnesyltransferase inhibitors as potential anti-tumor agents based on 3D-QSAR CoMFA and CoMSIA models” (Eur J Med Chem, 2008)",
  "data": [
    {"test": "Inhibition of farnesyltransferase", "values": [
      {"compound": "N#Cc1ccc(Cn2cncc2COCc2ccc(C#N)cc2-c2cccc(OC(F)(F)F)c2)cc1", "pIC50": 9.3},
      {"compound": "Cc1ccc(-c2cc(C#N)ccc2COCc2cncn2Cc2ccc(C#N)cc2)cc1C", "pIC50": 9.22},
      {"compound": "N#Cc1ccc(Cn2cncc2COCc2ccc(C#N)cc2-c2ccc(C(F)(F)F)cc2)cc1", "pIC50": 8.36},
      {"compound": "N#Cc1ccc(COCc2cncn2Cc2ccc(Cl)cc2)c(-c2ccc3c(c2)OCO3)c1", "pIC50": 8.08},
      {"compound": "CCOc1cccc(-c2cc(C#N)ccc2COCc2cncn2Cc2ccc(C#N)nc2)c1", "pIC50": 9.23},
      {"compound": "CC(C)(C)c1ccc(-c2cc(C#N)ccc2COCc2cncn2Cc2ccc(C#N)cc2)cc1", "pIC50": 9.35},
      {"compound": "N#Cc1ccc(COCc2cncn2Cc2ccc(C#N)nc2)c(-c2ccc3c(c2)OCO3)c1", "pIC50": 8.52},
      {"compound": "N#Cc1ccc(Cn2cncc2COCc2ccc(C#N)cc2-c2ccc3ccccc3c2)cc1", "pIC50": 9.03},
      {"compound": "CCOc1ccc(-c2cc(C#N)ccc2COCc2cncn2Cc2ccc(C#N)cc2)cc1", "pIC50": 8.92},
      {"compound": "N#Cc1ccc(OCc2cncn2Cc2ccc(C#N)c(-c3cccc4ccccc34)c2)nc1", "pIC50": 9.04},
      {"compound": "COc1ccc(-c2cc(C#N)ccc2COCc2cncn2Cc2ccc(C#N)cc2)cn1", "pIC50": 8.11},
      {"compound": "N#Cc1ccc(COCc2cncn2Cc2ccc(C#N)nc2)c(-c2cccc(Cl)c2)c1", "pIC50": 8.52},
      {"compound": "COc1cccc(-c2cc(C#N)ccc2COCc2cncn2Cc2ccc(C#N)cn2)c1", "pIC50": 8.35},
      {"compound": "N#Cc1ccc(OCc2cncn2Cc2ccc(C#N)c(-c3cccc4ccccc34)c2)cc1", "pIC50": 9.49},
      {"compound": "COc1cccc(-c2cc(C#N)ccc2COCc2cncn2Cc2ccc(C#N)nc2)c1", "pIC50": 8.82},
      {"compound": "N#Cc1ccc(Cn2cncc2COCc2ccc(C#N)cc2-c2cccc(Cl)c2)cc1", "pIC50": 9.43},
      {"compound": "N#Cc1ccc(Cn2cncc2COCc2ccc(Cl)cc2-c2cccc(Cl)c2)cc1", "pIC50": 9.2},
      {"compound": "N#Cc1ccc(Cn2cncc2COCc2ccc(C#N)cc2-c2ccc3c(c2)OCO3)nc1", "pIC50": 8.32},
      {"compound": "N#Cc1ccc(Cn2cncc2COc2ccc(C#N)c(-c3cccc4ccccc34)c2)cc1", "pIC50": 9.42},
      {"compound": "N#Cc1ccc(Cn2cncc2COCc2ccc(C#N)cc2-c2ccc(Cl)c(Cl)c2)cc1", "pIC50": 9.43},
      {"compound": "N#Cc1ccc(Cn2cncc2COCc2cnc(C#N)cc2-c2cccc(Cl)c2)cc1", "pIC50": 8.36},
      {"compound": "N#Cc1ccc(Cn2cncc2COCc2ccc(C#N)cc2-c2cccc(Cl)c2)nc1", "pIC50": 8.76},
      {"compound": "N#Cc1ccc(Cn2cncc2COCc2ccc(C#N)cc2-c2cccc3ccccc23)cc1", "pIC50": 8.88},
      {"compound": "CCOc1cccc(-c2cc(C#N)ccc2COCc2cncn2Cc2ccc(Cl)cc2)c1", "pIC50": 8.85},
      {"compound": "N#Cc1ccc(Cn2cncc2COCc2ccc(C#N)cc2-c2ccc(OC(F)(F)F)cc2)cc1", "pIC50": 9.18},
      {"compound": "N#Cc1ccc(Cn2cncc2COCc2ccc(C#N)cc2-c2cccc3c2OCO3)cc1", "pIC50": 9.09},
      {"compound": "CC(=O)c1ccc(-c2cc(C#N)ccc2COCc2cncn2Cc2ccc(C#N)cc2)cc1", "pIC50": 8.88},
      {"compound": "COc1cccc(-c2cc(C#N)ccc2COCc2cncn2Cc2ccc(Cl)cc2)c1", "pIC50": 8.65},
      {"compound": "CC(=O)Nc1cccc(-c2cc(C#N)ccc2COCc2cncn2Cc2ccc(C#N)cc2)c1", "pIC50": 7.88}
    ]}
  ]
}
